In article PMC3612465 (International Journal of Alzheimer's Disease, 2013):
Read-outs that look alike come from different tables or passages of the source.

Tests used:
Aβ40, Aβ42 [1] = system: Aβ40, Aβ42; parameters: species or system TgCRND8 mouse; details: mouse, in vivo
Text: (§1) Plasma and cortex Aβ42 were quantified in select TgCRND8 studies using biotin-4G8 and S-tag G2-11 and 4G8 antibodies.

Aβ40 [2] = details: rat, single oral dose 10-100 mg/kg, 3 hr
[3] = system: HES-1, mATH1, KLF4 gene expression; experiment: Notch pathway biomarker gene expression in jejunum (RT-PCR); type: in vivo, nontransgenic B6C3F1 mouse; details: nontransgenic mice
Text: The jejunum was harvested, rinsed, and flash frozen in liquid nitrogen until later analyses. RNA was isolated from tissues using the Trizol reagent (Molecular Research Center, Inc.) followed by purification over an RNAeasy column (Qiagen).
RNA was purified over an RNAeasy column.

Aβ40, Aβ42 [4] = system: Aβ40, Aβ42; parameters: species or system TgCRND8 mouse; details: mouse, in vivo, po, 100 mg/kg
Aβ40 [5] = experiment: Subchronic (11 days q.d. or 6 days b.i.d.) Aβ lowering in nontransgenic mice; type: in vivo, nontransgenic B6C3F1 mouse
Aβ40 [6] = experiment: Acute Aβ lowering in nontransgenic B6C3F1 mice; type: in vivo, nontransgenic B6C3F1 mouse; details: 3 hr
Aβ40, Aβ42 [7] = details: TgCRND8, single oral 30 mg/kg, 8 hr after dose
Text: as §1

[8] = system: Aβ; Notch-related toxicity; parameters: method as in PMID 21190552; details: 7 days of b.i.d. dosing, cited from earlier work

O=C(OC1([C@H]2CCC[C@@H](c3cc(F)cc(F)c3)N2S(=O)(=O)c2ccc(Cl)cc2)CC1)N1CCN(CCO)CC1 (relative stereo) [SCH 697466, 1-[cis-1-[(4-chlorophenyl)sulfonyl]-6-(3,5-difluorophenyl)-2-piperidinyl]cyclopropyl 4-(2-hydroxyethyl)-1-piperazinecarboxylate]
cortex Aβ40 reduction (Aβ40, Aβ42 [1]): 98% | cortex Aβ42 reduction (Aβ40, Aβ42 [1]): 66% | cortex Aβ reduction (Aβ40, Aβ42 [1]): 48% | reduction of Aβ at partial inhibition dose (Aβ40, Aβ42 [1]): ~ 50% | cortex Aβ40 reduction (plateau) (Aβ40 [2]): about 60% | mATH1 expression in the jejunum ([3]; 100 mg/kg 6 days b.i.d., P < 0.04): increased expression | HES-1 expression in the jejunum ([3]; 100 mg/kg, 11 days q.d. and 6 days b.i.d., P < 0.02): significant decreases | KLF4 expression in the jejunum ([3]; 30 and 100 mg/kg 6 days b.i.d., P < 0.04): increased expression | mATH1 and KLF expression in the jejunum ([3]; 11 day q.d. groups): unchanged | cortex Aβ40 reduction (Aβ40, Aβ42 [4]): 55% | cortex Aβ42 reduction (Aβ40, Aβ42 [4]): 47% | dose giving 50% lowering of cortical Aβ (Aβ40 [5]; nontransgenic mice, 11 days q.d. and 6 days b.i.d.): around 30 mg/kg | increase in Aβ in the cortex (Aβ40 [5]; nontransgenic mice, 11 days q.d. and 6 days b.i.d., 3-100 mg/kg): no evidence of an increase | continuous inhibition of Aβ with q.d. dosing (Aβ40 [5]; q.d. dosing (100 mg/kg), without Notch-related side effects): > 80% | cortex Aβ lowering (Aβ40 [6]; single oral 100 mg/kg): Near complete lowering | cortex Aβ lowering (Aβ40 [6]; single oral 10, 30 and 100 mg/kg, P < 0.005): significant lowering | cortex Aβ40 lowering (Aβ40, Aβ42 [7]): 82% | cortex Aβ42 lowering (Aβ40, Aβ42 [7]): 42%

O=S(=O)(c1ccc(Cl)cc1)N1[C@@H]2CCC[C@H]1c1cn[nH]c1C2 [ELN 475516]
lowering of Aβ ([8]; sustained but incomplete): ~ 74% | Notch-related toxicity (thymus weight, goblet cell hyperplasia in the ileum) [8]: no evidence of Notch-related toxicity
